Targets include HLA A*6802 (Homo sapiens, UniProt P04439, A269V/D140Y/D185E/E176V/E277Q/E87N/F33Y/G231S/I121R/I166T/I218V/L180W/L300P/L318F/N151K/P208A/P217A/Q86R/R138H/R169H/S129P/T345S/V36M); HLA B*3501 (Homo sapiens, UniProt P01889, A329T/A93T/A95T/C349S/D201E/D98Y/E176V/E187L/E204Q/E69T/I218V/K202T/L119I/Q94N/R155S/R180L/S121R/S35A/S48A/T118I/V127L/V306I/V36M/Y140S/Y91F); HLA B*5101 (Homo sapiens, UniProt P01889, A329T/A93T/A95T/C349S/D138N/D201E/D98Y/E187L/E204Q/E69T/G107R/I218V/K202T/L105A/L119W/N104I/Q94N/R106L/R155S/R180L/S101N/S121T/S35A/S48A/V306I/V36M/Y195H/Y91F); HLA B*5301 (Homo sapiens, UniProt P01889, A329T/A93T/A95T/C349S/D201E/D98Y/E176V/E187L/E204Q/E69T/G107R/I218V/K202T/L105A/L119I/N104I/Q94N/R106L/R155S/R180L/S101N/S121R/S35A/S48A/T118I/V127L/V306I/V36M/Y140S/Y91F); HLA B*5401 (Homo sapiens, UniProt P01889, A329T/C349S/D138N/D201E/E176V/E187T/E204Q/E69G/I76V/K202T/L119W/R155S/R180L/S121T/S35A/S48A/V127L/V306I/V36M/Y140L); HLA B*5801 (Homo sapiens, UniProt P01889, A329T/C349S/D201E/D98Y/E176V/E187L/E204Q/E69T/G107R/I218V/I90N/K202T/L105A/L119I/N104I/N87E/Q89R/Q94S/R106L/R155S/R180L/R86G/S101N/S121R/S35A/S48A/T118I/V127L/V306I/V36M/Y140S/Y91M); HLA B*5802 (Homo sapiens, UniProt P01889, A329T/C349S/D201E/D98Y/E176V/E187L/E204Q/E69T/G107R/I218V/I90N/K202T/L105A/N104I/N87E/Q89R/Q94S/R106L/R155S/R180L/R86G/S101N/S121W/S35A/S48A/V127L/V306I/V36M/Y140S/Y91M); H-2 D^b (Mus musculus, UniProt P01899); H-2 D^d (Mus musculus, UniProt P01900); H-2 K^d (Mus musculus, UniProt P01902); H-2 K^k (Mus musculus, UniProt P04223).

What all share (assay type): binding
In the next assay the target is HLA A*3001 (Homo sapiens, UniProt P04439, D140H/D185E/E176W/F33S/G80R/H175R/K168Q/R138E/R41S). As to the kind of experiment: biochemical.
In the next assay the target is HLA A*3201 (Homo sapiens, UniProt P04439, A270S/D101S/D185E/E176V/E277Q/F133L/G103R/G107R/G231S/H175R/I121M/I218V/I322F/K168Q/L105A/L300P/L318F/M331R/P208A/P217A/Q94H/R106L/R138Q/S129P/T104I/T323A/T345S/V100E/V321M/V358M). As to the kind of experiment: biochemical.
The next assay concerns the target HLA B*0801 (Homo sapiens, UniProt P01889, A93T/A95T/D138N/E176V/E187T/K202T/Q94N/R180D/S35A/V36M/Y33D/Y91F). The experiment in a line: biochemical.
Another assay deals with HLA B*1501 (Homo sapiens, UniProt P01889, A329T/A93T/A95T/C349S/D201E/D98Y/E187L/E204Q/E69M/E70A/K202T/N87E/Q94N/R155S/R180W/S121R/S35A/S48A/V306I/V36M/Y140S/Y91S). As to the kind of experiment: biochemical.
A further assay addresses HLA B*1503 (Homo sapiens, UniProt P01889, A329T/A93T/A95T/C349S/D201E/D98Y/E187L/E204Q/K202T/N87E/Q94N/R155S/R180L/S121R/S35A/V306I/V36M/Y140S/Y91S). As to the kind of experiment: biochemical.

Sequence of H-2 K^k (P01887 21-119): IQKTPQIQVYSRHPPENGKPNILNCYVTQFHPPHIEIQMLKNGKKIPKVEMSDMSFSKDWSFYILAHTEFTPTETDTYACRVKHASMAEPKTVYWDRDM
Sequence of H-2 K^k (P04223 22-369): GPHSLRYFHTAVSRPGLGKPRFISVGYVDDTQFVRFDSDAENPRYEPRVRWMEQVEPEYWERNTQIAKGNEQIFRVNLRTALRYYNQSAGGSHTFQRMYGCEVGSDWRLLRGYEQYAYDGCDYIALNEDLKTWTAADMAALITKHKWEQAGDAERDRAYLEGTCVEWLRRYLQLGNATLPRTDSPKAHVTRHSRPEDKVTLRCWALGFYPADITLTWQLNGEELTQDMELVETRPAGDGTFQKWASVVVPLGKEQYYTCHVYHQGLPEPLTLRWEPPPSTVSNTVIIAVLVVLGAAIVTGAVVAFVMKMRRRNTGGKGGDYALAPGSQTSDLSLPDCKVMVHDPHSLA
Sequence of H-2 K^d (P01887 21-119): as the sequence (P01887 21-119) above
Sequence of H-2 K^d (P01902 22-368): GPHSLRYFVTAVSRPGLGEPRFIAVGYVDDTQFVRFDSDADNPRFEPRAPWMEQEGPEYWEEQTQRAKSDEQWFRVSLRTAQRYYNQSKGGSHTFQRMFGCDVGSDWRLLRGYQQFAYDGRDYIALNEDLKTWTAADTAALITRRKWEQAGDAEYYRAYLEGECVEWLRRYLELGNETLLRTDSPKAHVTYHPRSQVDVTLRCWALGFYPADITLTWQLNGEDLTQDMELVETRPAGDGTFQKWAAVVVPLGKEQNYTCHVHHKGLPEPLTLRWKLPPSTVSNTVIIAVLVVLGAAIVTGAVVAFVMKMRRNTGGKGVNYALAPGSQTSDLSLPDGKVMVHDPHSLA
Sequence of H-2 D^b (P01887 21-119): as the sequence (P01887 21-119) above
Sequence of H-2 D^b (P01899 25-362): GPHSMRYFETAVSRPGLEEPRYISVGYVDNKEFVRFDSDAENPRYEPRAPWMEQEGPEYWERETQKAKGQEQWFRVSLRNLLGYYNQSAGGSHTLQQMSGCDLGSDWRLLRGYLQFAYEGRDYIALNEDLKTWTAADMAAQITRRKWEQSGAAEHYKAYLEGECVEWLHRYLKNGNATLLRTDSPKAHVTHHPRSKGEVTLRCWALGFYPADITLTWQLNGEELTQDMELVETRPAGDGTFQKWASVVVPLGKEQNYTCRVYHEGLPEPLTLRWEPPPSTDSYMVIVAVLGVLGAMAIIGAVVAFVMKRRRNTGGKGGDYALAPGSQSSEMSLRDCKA
Sequence of H-2 D^d (P01900 whole entry, looked up): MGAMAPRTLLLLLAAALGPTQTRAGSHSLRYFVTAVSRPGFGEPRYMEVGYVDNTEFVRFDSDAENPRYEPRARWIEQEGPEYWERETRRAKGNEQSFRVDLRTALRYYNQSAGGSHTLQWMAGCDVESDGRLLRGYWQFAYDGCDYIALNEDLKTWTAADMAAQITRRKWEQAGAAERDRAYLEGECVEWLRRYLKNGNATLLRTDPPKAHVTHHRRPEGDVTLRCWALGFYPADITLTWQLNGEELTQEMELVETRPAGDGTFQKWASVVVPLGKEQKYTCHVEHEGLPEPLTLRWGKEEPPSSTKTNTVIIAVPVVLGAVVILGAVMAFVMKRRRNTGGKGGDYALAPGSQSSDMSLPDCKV

Consider XXXXXXKXX [3064.0129], for which the “Normalized average relative binding affinity(ARB)” value was found to be 0.062 on HLA A*3001; 0.030 at HLA A*3201; 0.086 on HLA A*6802; 0.26 on HLA B*0801; 0.15 on HLA B*1501; 0.091 at HLA B*1503. Also, the “Normalized average relative binding affinity(ARB)” value on HLA B*3501 was 0.073; at HLA B*5101 it was 0.12; on HLA B*5301, 0.022; on HLA B*5401, 0.089; at HLA B*5801 it was 0.037; at HLA B*5802, 0.031. For the same sequence, the “Normalized average relative binding affinity(ARB)” value at H-2 D^b is reported as 0.062; on H-2 D^d, 0.0067; on H-2 K^d, 0.023; at H-2 K^k it was 0.15.
For the sequence XXXXXXLXX [3064.0130], the “Normalized average relative binding affinity(ARB)” value amounted to 0.21 at HLA A*3001; 0.86 on HLA A*3201; 0.56 on HLA A*6802; 0.60 on HLA B*0801; 1.0 on HLA B*1501; 0.24 at HLA B*1503. Also, the “Normalized average relative binding affinity(ARB)” value was 0.21 at HLA B*3501; 0.65 at HLA B*5101; 0.32 at HLA B*5301; 0.13 on HLA B*5401; 1.0 on HLA B*5801; 0.014 at HLA B*5802. The “Normalized average relative binding affinity(ARB)” value at H-2 D^b was determined as 0.26; on H-2 D^d it was 0.036; at H-2 K^d it was 0.10; at H-2 K^k, 0.10.
Turning to XXXXXXMXX [3064.0131], the “Normalized average relative binding affinity(ARB)” value at HLA A*3001 was 0.32; on HLA A*3201, 0.10; on HLA A*6802, 0.51; at HLA B*0801 it was 0.62; at HLA B*1501, 0.54; on HLA B*1503, 0.18. Also, the “Normalized average relative binding affinity(ARB)” value was 0.13 on HLA B*3501; 0.68 on HLA B*5101; 0.15 at HLA B*5301; 0.065 on HLA B*5401; 0.30 on HLA B*5801; 0.35 on HLA B*5802. The “Normalized average relative binding affinity(ARB)” value on H-2 D^b came out at 0.24; on H-2 D^d, 0.024; on H-2 K^d, 0.080; on H-2 K^k, 0.064.
In the case of XXXXXXNXX [3064.0132], the “Normalized average relative binding affinity(ARB)” value on HLA A*3001 was 0.10; on HLA A*3201, 0.42; at HLA A*6802, 0.54; on HLA B*0801, 0.69; at HLA B*1501, 0.66; on HLA B*1503, 1.0. Besides, the “Normalized average relative binding affinity(ARB)” value on HLA B*3501 is on record as 0.28; on HLA B*5101, 0.46; at HLA B*5301, 0.29; on HLA B*5401, 0.39; on HLA B*5801, 0.37; on HLA B*5802, 0.092. The “Normalized average relative binding affinity(ARB)” value at H-2 D^b is on record as 0.41; at H-2 D^d it was 0.095; at H-2 K^d, 0.61; at H-2 K^k, 0.22.
With XXXXXXPXX [3064.0133], the “Normalized average relative binding affinity(ARB)” value was determined as 1.0 at HLA A*3001; 0.088 on HLA A*3201; 0.37 on HLA A*6802; 0.36 on HLA B*0801; 0.62 on HLA B*1501; 0.16 at HLA B*1503. Moreover, the “Normalized average relative binding affinity(ARB)” value is on record as 0.31 at HLA B*3501; 0.53 at HLA B*5101; 0.50 on HLA B*5301; 0.32 at HLA B*5401; 0.22 on HLA B*5801; 1.0 at HLA B*5802. Further, the “Normalized average relative binding affinity(ARB)” value stood at 0.26 at H-2 D^b, 0.020 at H-2 D^d, 0.021 at H-2 K^d and 0.10 on H-2 K^k.
XXXXXXQXX [3064.0134]: the “Normalized average relative binding affinity(ARB)” value was 0.29 on HLA A*3001; 0.33 at HLA A*3201; 0.45 at HLA A*6802; 0.79 at HLA B*0801; 0.51 on HLA B*1501; 0.95 on HLA B*1503. For the same sequence, the “Normalized average relative binding affinity(ARB)” value at HLA B*3501 was found to be 0.36; on HLA B*5101, 0.50; on HLA B*5301 it was 1.0; at HLA B*5401, 1.0; at HLA B*5801, 0.23; at HLA B*5802, 0.22. Further, the “Normalized average relative binding affinity(ARB)” value came to 0.84 on H-2 D^b, 0.057 at H-2 D^d, 0.25 at H-2 K^d and 0.016 on H-2 K^k.

For the origin of these results see article PMC2248166, “Quantitative peptide binding motifs for 19 human and mouse MHC class I molecules derived using positional scanning combinatorial peptide libraries” (Immunome Research, 2008).
